The source of these data is patent publication US6593369B2, “Methods, compositions, and kits for enhancing female sexual desire and responsiveness” (Vivus, Inc., priority 1997, dated 2003).

As usually defined, the solubility is the concentration that dissolves in the medium under given conditions.

The structures appear in SMILES notation. In brackets after ≈: the same amount, converted by molar mass. Some results are limits rather than exact numbers.

Data set [1] concerns clitoris. Briefly: Patient subjective reports of sexual arousal and symptoms after application to the clitoris. The class given is in vivo, human. Here is the method:
3. Patient Subjective Reports:
Patient reports of symptoms and effects of agents on sexual arousal measures (such as warmth and tingling, vaginal lubrication and excitation) were recorded. Blood pressure and pulse were also recorded. Different drugs were given on different days. Some series of drug titrations were recorded on several days.
(§1) 1. Solutions of prostaglandin E-1 and E-2 were prepared by dissolving weighed amounts of the prostaglandin in triacetin to produce a concentrated stock solution. Serial dilutions of this stock solution were made by a micropipette. Since triacetin can partially hydrolyze on standing to produce traces of acetic acid, the triacetin was treated with a small amount of a concentration potassium bicarbonate solution to remove any acetic acid, then dried with magnesium sulfate and filtered to give a triacetin free of acid or water. Solutions were used the same day that they were made. Concentrations of prostaglandin varied from 2.0-1,000 micrograms per milliliter of triacetin. Following equilibration of clitoral temperature, a dose of triacetin was applied to the clitoris prior to active drug solutions to determine the effect of the carrier on the clitoris.
(§2) 2. R-alphamethylhistamine hydrochloride is not soluble in triacetin but is soluble in saline. Normal saline +2 millimolar potassium phosphate at pH 7.4 was used to prepare solutions of R-alphamethylhistamine hydrochloride with concentrations from 2.5-100 micrograms per milliliter of saline.
(§3) Solutions were applied directly to the clitoris by means of a calibrated micropipette (Justor 1100DG, Sigma; St. Louis, Mo.).

Data set [2] has as its system clitoris. Put plainly: Measurement of clitoral skin temperature after topical application to the clitoris. The class given is in vivo, human.
Text: 2. Measurement of clitoral skin temperature:
A highly sensitive thermocouple capable of determining changes in skin temperature of 0.002 degrees Fahrenheit was connected to a computer-based recording device (F1000 by Focused Technology, Inc.) and used to measure changes in clitoral skin temperature. The patient changed from their clothes into a gown and was placed in a semi-reclining position in a comfortable recliner. Room temperature was controlled at 76 degrees F. (±1) and no air drafts were present. The thermocouple was coated with a small amount of lubricating jelly and placed in a labial skin fold adjacent to the clitoris. A period of equilibration (˜15 minutes) allowed the measured temperature to stabilize. Next, precise doses of various pharmaceuticals were applied as solutions directly to the clitoris by a calibrated micropipette (Justor 1100DG, Sigma; St. Louis, Mo.). Typical volumes used were 20-50 microliters. Clitoral temperatures were continually measured and printed for analysis. Increases in skin temperature directly correlate with changes in cutaneous blood flow. See Birnbaum (U.S. Pat. No. 4,311,707) for an example of using this method to compare the relative vasodilatory potency of topical prostaglandins. Changes in skin temperature are reported as maximum recorded temperature in an interval minus the temperature at the end of the equilibration period. The magnitudes of these recorded temperature changes may be used as a measurement of the change in clitoral blood flow.
as §1, §2, §3

The next data set concerns clitoral artery. Put plainly: Measurement of clitoral blood flow by ultrasound (Doppler velocitometer). The class given is in vivo, human. To be noted: Patient No. 1; for Change in Clitoral Blood Flow: peak systolic flow vs baseline; for Change in Clitoral Blood Flow, percent in brackets: vs baseline.
Text: 1. Measurement of clitoral blood flow by ultrasound:
Clitoral blood flow was estimated by utilizing the Knoll-Midas ultrasonic Doppler velocitometer (Urometrics, Inc.). The ultrasound probe was manually positioned over the middle of the clitoral body as it courses superficially through the perineum between the external vaginal opening and the end of the clitoris (glans clitoris). […] This method is analogous to that used in measuring the cavernosal artery velocity in the penis. The clitoral artery was easily visualized. Measurements were made at baseline and at various time intervals following the application of a drug to the clitoris. Peak systolic blood flow at baseline was compared to peak systolic blood flow following drug administration as a method of comparing relative efficacy in inducing clitoral artery vasodilatation in a manner analogous to studies of such drugs in men.
as §1, §3

The next data set is described as follows: Solubility in water. The class given is physicochemical.
Setting [3] is: Patient No. 1, 0.400 mcg in triacetin on clitoris.
Where [4] appears, read: Patient No. 1, 1.000 mcg in triacetin on clitoris.
Where [5] appears, read: Patient No. 1, 20.0 mcg in triacetin on clitoris.
The mark [6] stands for this setting: Patient No. 1, 50.0 mcg in triacetin on clitoris.
Setting [7] is: Patient No. 1, 200.0 mcg in triacetin on clitoris.
The mark [8] stands for this setting: Patient No. 2, 1.000 mcg in triacetin on clitoris.
Setting [9] is: Patient No. 2, 10.0 mcg in triacetin on clitoris.
Setting [10] is: Patient No. 2, 100.0 mcg in triacetin on clitoris.
Setting [11] is: Patient No. 1, 1.0 mcg in saline on clitoris.
[12] abbreviates: Patient No. 1, 10.0 mcg in saline on clitoris.
Where [13] appears, read: Patient No. 1, 100.0 mcg in saline on clitoris.

Procedure for Solubility in water: 5 mg of PGE-2 is added to sterile cold water (10 ml, 1 mM in sodium citrate), stirred until dissolved and the pH adjusted with either NaOH or HCl, to a pH of about 5.4.

`CCCCC[C@H](O)/C=C/[C@H]1[C@H](O)CC(=O)[C@@H]1CCCCCCC(=O)O` [PGE-1, 3-hydroxy-2-(3-hydroxy-1-octenyl)-5-oxocyclopentaneheptanoic acid]: the “Doses giving pleasurable feelings” value in the data set with clitoris [1] (Patient No. 1) was at least 20 µg. Moreover, the “Doses with adverse effects” value with clitoris [1] (Patient No. 1) is “adverse effects at all doses”. In addition, the “Subjective Response” value with clitoris [1] (setting [3]) is listed as “Felt cold”; in the data set on clitoris [1] (setting [4]), “Clitoral burning; 6/10;”; with clitoris [1] (setting [5]), “Clitoral burning; 4/10”; with clitoris [1] (setting [6]), “Exciting. Jaw pain”; in the data set with clitoris [1] (setting [7]), “Diffuse pain, flushing,”; with clitoris [1] (setting [8]) it was “Felt drop go on. No”. Also, the “Subjective Response” value in the data set on clitoris [1] (setting [9]) is on record as “Felt drop go on. No”; with clitoris [1] (setting [10]), “Felt nothing”. The Overall effects result in the data set with clitoris [1] (Patient No. 2) is on record as “neither positive nor negative effects”. For the same molecule, the “Temperature Change” value is reported as −0.6 ° F with clitoris [2] (setting [3]); 0.3 ° F in the data set on clitoris [2] (setting [4]); 0.3 ° F in the data set with clitoris [2] (setting [5]); 0.1 ° F in the data set on clitoris [2] (setting [6]); 2.7 ° F in the data set with clitoris [2] (Patient No. 1, 100.0 mcg in triacetin on clitoris); 0.4 ° F in the data set on clitoris [2] (setting [7]). Moreover, the “Temperature Change” value in the data set on clitoris [2] (setting [8]) was −0.35 ° F; with clitoris [2] (setting [9]), −0.10 ° F; in the data set on clitoris [2] (setting [10]), −0.10 ° F. Further, the “Clitoral temperature effect (conclusion)” value in the data set with clitoris [2] (Patient No. 2) is “did not have a temperature increase”. The “Change in Clitoral Blood Flow” value was 4 cm/s in the data set with clitoral artery (20.0 mcg in triacetin), 3.5 cm/s in the data set with clitoral artery (50.0 mcg in triacetin), 6.5 cm/s in the data set on clitoral artery (100.0 mcg in triacetin) and 11 cm/s with clitoral artery (200.0 mcg in triacetin). Moreover, the “Change in Clitoral Blood Flow, percent in brackets” value in the data set on clitoral artery (20.0 mcg in triacetin) is listed as “+46%”; in the data set on clitoral artery (50.0 mcg in triacetin), “+32%”; in the data set on clitoral artery (100.0 mcg in triacetin), “+33%”; in the data set on clitoral artery (200.0 mcg in triacetin), “+80%”. Moreover, the concentration in solution in the data set “Solubility in water” (solubility) came to 80 µg/mL (≈ 226 µM).
With `C[C@@H](N)Cc1c[nH]cn1.Cl` [R-alphamethylhistamine, R-alphamethylhistamine hydrochloride], the results for the “Subjective Response” value with clitoris [1] (setting [11]), in the data set with clitoris [1] (setting [12]) and with clitoris [1] (setting [13]) were “None”, “Numb feeling in clitoris” and “Clitoral burning; 2/10;”, respectively. Moreover, the “Overall effect on temperature and sexual excitement” value with clitoris [2] (Patient No. 1) was “decreased temperature and decreased sexual excitement”. Besides, the figures for the “Temperature Change” value in the data set on clitoris [2] (setting [11]), in the data set on clitoris [2] (setting [12]) and with clitoris [2] (setting [13]) were −0.1 ° F, −0.5 ° F and 0.1 ° F, respectively.
